Measured values as given in US11691949B2, “Quinoline sulfonamide compounds and their use as antibacterial agents” (OTAGO INNOVATION LIMITED, priority 2017, dated 2023).
Converted amounts (≈) assume the structure as drawn. Counter-ions that a name gives are not always drawn. Like-named read-outs stand apart in the source and are kept apart here.

Columns and labels:
Format in all cases: cell-based
[1] = test system: S. aureus ATCC 6538; experiment: MBC by Miles-Misra drop-plate method, S. aureus; details: Staphylococcus aureus
Experimental: (§1) Antibacterial susceptibility testing was performed in triplicate (biological) by measuring minimum inhibitory concentrations (MICs) by broth microdilution in 96-well flat bottom microtiter plates (ThermoFisher Scientific, New Zealand). S. uberis ATCC 19436, S. aureus ATCC 6538, or E. coli ATCC 10596 cells grown overnight were diluted to an OD600 of approximately 0.025, so that the final concentration of cells in the MIC assay was approximately 5×10^5 cfu/mL in media as follows: S. uberis; Todd Hewitt Broth (THB), S. aureus; Tryptic Soy Broth (TSB) and Cation Adjusted Muller Hinton Broth (CAMHB), and E. coli; Lysogeny Borth (LB) and CAMHB, before being dispensed into microtiter wells. As required additional sterile Zinc Sulphate (Heptahydrate) was supplemented into the media, so the final concentration was 50 μM. Test compounds were added to starting wells and two-fold serial dilutions were undertaken to generate a range of inhibitor concentrations at a final volume of 200 μl. Media and test compound-free (untreated) controls were included in each microtiter plate in triplicate. After 24 h incubation at 37° C. and 200 rpm, the OD600 of wells were read using a Varioskan Flash plate reader (ThermoFisher Scientific, New Zealand). The MIC was reported as the lowest concentration of the test compound for which no growth occurred, as determined by OD600 readings. The minimum bactericidal concentration (MBC) was determined using the Miles-Misra drop-plate method to measure the viability of cells in response to test compound challenge.

[2] = test system: S. uberis ATCC 19436; experiment: MIC by broth microdilution, S. uberis; details: Streptococcus uberis
How it was run: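 The MIC against S. uberis ATCC 19436 was the lowest compound concentration showing no growth by OD600 after 24 h at 37° C. with 200 rpm shaking. Cultures grown overnight were adjusted to OD600 ~0.025 so wells held approximately 5×10^5 cfu/mL in THB. Two-fold dilution series were made at a final volume of 200 μl. Media and untreated controls were run in triplicate on each plate.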

[3] = test system: E. coli ATCC 10536; experiment: MBC by Miles-Misra drop-plate method, E. coli; details: Escherichia coli
Experimental: as §1

[4] = test system: S. aureus ATCC 6538; experiment: MIC by broth microdilution, S. aureus; details: Staphylococcus aureus
How it was run: (§2)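 Overnight cultures diluted to ~5×10^5 cfu/mL final; S. aureus in TSB and CAMHB, E. coli in LB and CAMHB, zinc sulphate to 50 μM final as required; two-fold serial dilutions. MIC = lowest concentration with no growth by OD600 after 24 h, 37° C, 200 rpm. MBC by Miles-Misra drop-plate viability count.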

[5] = test system: S. uberis ATCC 19436; experiment: MBC by Miles-Misra drop-plate method, S. uberis; details: Streptococcus uberis
Experimental: as §1

[6] = test system: E. coli ATCC 10596; experiment: MIC by broth microdilution, E. coli; details: Escherichia coli
How it was run: as §2

[7] = ATCC6538, read-out: S. aureus ATCC 6538 MBC, No Zinc
[8] = ATCC6538, read-out: S. aureus ATCC 6538 MBC, Zinc (50 μM)
[9] = ATCC19436, read-out: S. uberis ATCC 19436 MIC, No Zinc
[10] = ATCC19436, read-out: S. uberis ATCC 19436 MIC, Zinc (50 μM)
[11] = ATCC10536, read-out: E. coli ATCC 10536 MBC, No Zinc
[12] = ATCC10536, read-out: E. coli ATCC 10536 MBC, Zinc (50 μM)
[13] = ATCC6538, read-out: S. aureus ATCC 6538 MIC, No Zinc
[14] = ATCC6538, read-out: S. aureus ATCC 6538 MIC, Zinc (50 μM)
[15] = ATCC19436, read-out: S. uberis ATCC 19436 MBC, No Zinc
[16] = ATCC19436, read-out: S. uberis ATCC 19436 MBC, Zinc (50 μM)
[17] = ATCC 10536 / ATCC 10596, read-out: E. coli ATCC 10536 MIC, No Zinc
[18] = ATCC 10536 / ATCC 10596, read-out: E. coli ATCC 10536 MIC, Zinc (50 μM)

Row | Structure (SMILES) | MBC [1, 7] [µg/mL] | MBC [1, 8] [µg/mL] | MIC [2, 9] [µg/mL] | MIC [2, 10] [µg/mL] | MBC [3, 11] [µg/mL] | MBC [3, 12] [µg/mL] | MIC [4, 13] [µg/mL] | MIC [4, 14] [µg/mL] | MBC [5, 15] [µg/mL] | MBC [5, 16] [µg/mL] | MIC [6, 17] [µg/mL] | MIC [6, 18] [µg/mL] | other results
1 | N=C(N)NCc1ccc2cccc(NS(=O)(=O)c3ccc(C(F)(F)F)cc3)c2n1 [ZDR187, N-(2-(Guanidinomethyl)quinolin-8-yl)-4-(trifluoromethyl)benzenesulfonamide trifluoroacetate] | 32 | 32 | 16 | 0.5 | 64 | 16 | 8 | 8 | 16 | 8 | 32 | 16 | 
2 | CN(C)CCCNC(=O)c1ccc2cccc(NS(=O)(=O)c3ccc(C(F)(F)F)cc3)c2n1 [ZDR224, N-(3-(Dimethylamino)propyl)-8-((4-(trifluoromethyl)phenyl)sulfonamido)quinoline-2-carboxamide trifluoroacetate] | 128 | 32 | 64 | 16 | > 256 | 256 | 128 | 32 | 64 | 8 | 256 | 256 | 
3 | CN(C)CCCNC(=O)CNCc1ccc2cccc(NS(=O)(=O)c3ccc(C(F)(F)F)cc3)c2n1 [ZDR261, N-(3-(Dimethylamino)propyl)-2-(((8-((4-(trifluoromethyl)phenyl)sulfonamido)quinolin-2-yl)methyl)amino)acetamide di-trifluoroacetate] | 128 (≈ 244 µM) | 64 (≈ 122 µM) | 32 (≈ 61.1 µM) | 16 (≈ 30.6 µM) | > 256 | > 256 | 32 (≈ 61.1 µM) | 32 (≈ 61.1 µM) | 16 (≈ 30.6 µM) | 16 (≈ 30.6 µM) | 64 (≈ 122 µM) | 64 (≈ 122 µM) | 
4 | O=C(CNCc1ccc2cccc(NS(=O)(=O)c3ccc(C(F)(F)F)cc3)c2n1)NCCN1CCCCC1 [ZDR269, N-(2-(Piperidin-1-yl)ethyl)-2-(((8-((4-(trifluoromethyl)phenyl)sulfonamido)quinolin-2-yl)methyl)amino)acetamide di-trifluoroacetate] | 64 (≈ 116 µM) | 128 (≈ 233 µM) | 4 (≈ 7.28 µM) | 8 (≈ 14.6 µM) | 64 (≈ 116 µM) | 64 (≈ 116 µM) | 32 (≈ 58.2 µM) | 64 (≈ 116 µM) | 4 (≈ 7.28 µM) | 16 (≈ 29.1 µM) | 64 (≈ 116 µM) | 64 (≈ 116 µM) | 
5 | CN(C)Cc1ccc2cccc(NS(=O)(=O)c3ccc(Cl)cc3Cl)c2n1 [ZDR335, 2,4-Dichloro-N-(2-((dimethylamino)methyl)quinolin-8-yl)benzenesulfonamide] |  |  |  |  |  |  |  |  |  |  |  |  | MBC ([1]; ATCC6538, No Zinc, read-out: S. aureus ATCC 6538 MBC): > 256 µg/mL; MBC ([1]; ATCC6538, Zinc (50 μM), read-out: S. aureus ATCC 6538 MBC): > 256 µg/mL; MIC ([2]; ATCC19436, No Zinc, read-out: S. uberis ATCC 19436 MIC): 64 µg/mL (≈ 156 µM); MIC ([2]; ATCC19436, Zinc (50 μM), read-out: S. uberis ATCC 19436 MIC): 0.0312 µg/mL (≈ 0.076 µM); MBC ([3]; ATCC10536, No Zinc, read-out: E. coli ATCC 10536 MBC): > 256 µg/mL; MBC ([3]; ATCC10536, Zinc (50 μM), read-out: E. coli ATCC 10536 MBC): > 256 µg/mL; MIC ([4]; ATCC6538, No Zinc, read-out: S. aureus ATCC 6538 MIC): 32 µg/mL (≈ 78 µM); MIC ([4]; ATCC6538, Zinc (50 μM), read-out: S. aureus ATCC 6538 MIC): 8 µg/mL (≈ 19.5 µM); MBC ([5]; ATCC19436, No Zinc, read-out: S. uberis ATCC 19436 MBC): 64 µg/mL (≈ 156 µM); MBC ([5]; ATCC19436, Zinc (50 μM), read-out: S. uberis ATCC 19436 MBC): 2 µg/mL (≈ 4.87 µM); MIC ([6]; ATCC 10536 / ATCC 10596, No Zinc, read-out: E. coli ATCC 10536 MIC): > 256 µg/mL; MIC ([6]; ATCC 10536 / ATCC 10596, Zinc (50 μM), read-out: E. coli ATCC 10536 MIC): > 256 µg/mL
